Here are results for 30 compounds from patent publication US20240158385A1, “NOVEL COMPOUNDS” (Cerevance, Inc., priority 2021, published 2024).

Bounds are passed on as bounds.

This assay has as its target T1, human KCNK13 (Homo sapiens, UniProt Q9HB14).
T1 construct: expressed in transfected cells
T1 sequence (Q9HB14 1-408): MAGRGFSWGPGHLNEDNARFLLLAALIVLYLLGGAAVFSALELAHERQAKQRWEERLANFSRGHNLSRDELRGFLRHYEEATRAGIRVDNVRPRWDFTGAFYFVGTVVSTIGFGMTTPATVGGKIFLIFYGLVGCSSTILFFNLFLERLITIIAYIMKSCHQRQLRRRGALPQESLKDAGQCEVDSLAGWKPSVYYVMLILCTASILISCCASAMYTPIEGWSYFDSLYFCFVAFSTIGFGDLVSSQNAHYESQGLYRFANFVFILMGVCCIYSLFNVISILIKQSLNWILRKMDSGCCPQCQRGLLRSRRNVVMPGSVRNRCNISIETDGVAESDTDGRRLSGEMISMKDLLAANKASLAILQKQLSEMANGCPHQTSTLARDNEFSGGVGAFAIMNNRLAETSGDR
Briefly: KCNK13 antagonist activity, thallium (Tl+) flux FLIPR assay. It is filed as cell-based. Particulars: HEK 293 cells stably expressing human KCNK13; Tl+ sensitive dye, FLIPR; compounds 15 minutes prior to thallium sulfate; 10 point half log curves from 10 PM; read-out: hKCNK13 IC50. The method, then:
KCNK13 antagonist activity was determined by measuring changes in intracellular Thallium (Tl^+) concentrations using a Tl^+ sensitive fluorescent dye. The changes in fluorescent signal were monitored by Fluorescent Imaging Plate Reader (FLIPR™) technology available from Molecular Devices, LLC, US. KCNK13 mediated increases in intracellular Tl+concentration were readily detected by addition of a thallium sulfate stimulus. 24 hours prior to the assay, human embryonic kidney 293 cells (HEK 293 cells) stably expressing human KCNK13 were seeded in cell culture medium in PDL coated black, clear-bottom 384-well plates (commercially available from Corning Inc., 356663) and grown overnight at 37° C., 5% CO2. On the day of the assay, cell culture media was removed and cells were loaded with potassium dye (commercially sold by Molecular Devices, LLC, US, R8222) for 1 hour at room temperature in the dark. Test compounds (at 10 point half log concentration response curves from […]) were added to cells for 15 minutes prior to the addition of thallium sulfate to all wells. The IC50 values were determined from ten point concentration response curves. Curves were generated using the average of two wells for each data point.
What is called IC50 is the concentration needed to halve the response being measured. For `CC(c1cccnc1)n1c(-c2nonc2N)nc2ccccc21` (racemic) [Example 85, rac-4-[1-[1-(pyridin-3-yl)ethyl]benzimidazol-2-yl]-1,2,5-oxadiazol-3-amine], the IC50 is under 5000 nM.

In the case of `Nc1nonc1-c1nc2ccc(F)cc2n1Cc1cncnc1` (single isomer, unassigned) [Example 4, 4-[6-fluoro-1-(pyrimidin-5-ylmethyl)benzimidazol-2-yl]-1,2,5-oxadiazol-3-amine], the IC50 is under 50 nM.

With `Nc1nonc1-c1nc2cc(F)ccc2n1Cc1cncnc1` (single isomer, unassigned) [Example 5, 4-[5-fluoro-1-(pyrimidin-5-ylmethyl)benzimidazol-2-yl]-1,2,5-oxadiazol-3-amine], the IC50 is under 100 nM.

As to `N#Cc1ncc(Cn2c(-c3nonc3N)nc3cccc(F)c32)cn1` (single isomer, unassigned) [Example 25, 5-[[2-(4-amino-1,2,5-oxadiazol-3-yl)-7-fluoro-benzimidazol-1-yl]methyl]pyrimidine-2-carbonitrile], the IC50 was under 50 nM.

In the case of `N#Cc1ncc(Cn2c(-c3nonc3N)nc3c(F)cccc32)cn1` (single isomer, unassigned) [Example 26, 5-[[2-(4-amino-1,2,5-oxadiazol-3-yl)-4-fluoro-benzimidazol-1-yl]methyl]pyrimidine-2-carbonitrile], the IC50 is under 100 nM.

For the compound `[2H]C([2H])(c1cccnc1)n1c(-c2nonc2C)nc2c(F)cccc21` (single isomer, unassigned) [Example 30, 3-[1-[dideuterio(pyridin-3-yl)methyl]-4-fluoro-benzimidazol-2-yl]-4-methyl-1,2,5-oxadiazole], the IC50 was under 50 nM.

In the case of `[2H]C([2H])(c1cccnc1)n1c(-c2nonc2C)nc2cccc(F)c21` (single isomer, unassigned) [Example 31, 3-[1-[dideuterio(pyridin-3-yl)methyl]-7-fluoro-benzimidazol-2-yl]-4-methyl-1,2,5-oxadiazole], the IC50 is under 50 nM.

As for `Cc1nonc1-c1nc2c(Cl)cccc2n1Cc1ccc(C#N)nc1` (single isomer, unassigned) [Example 61, 5-[[4-chloro-2-(4-methyl-1,2,5-oxadiazol-3-yl)benzimidazol-1-yl]methyl]pyridine-2-carbonitrile], the IC50 was under 200 nM.

As for `Cc1nonc1-c1nc2cccc(Cl)c2n1Cc1ccc(C#N)nc1` (single isomer, unassigned) [Example 62, 5-[[7-chloro-2-(4-methyl-1,2,5-oxadiazol-3-yl)benzimidazol-1-yl]methyl]pyridine-2-carbonitrile], the IC50 is under 200 nM.

On to `Nc1nonc1-c1nc2c(F)cccc2n1Cc1cccnc1` (single isomer, unassigned) [Example 87, 4-[4-fluoro-1-(pyridin-3-ylmethyl)benzimidazol-2-yl]-1,2,5-oxadiazol-3-amine], for which the IC50 was under 50 nM.

For the compound `Nc1nonc1-c1nc2ccc(F)cc2n1Cc1cccnc1` (single isomer, unassigned) [Example 118, 4-[6-fluoro-1-(pyridin-3-ylmethyl)benzimidazol-2-yl]-1,2,5-oxadiazol-3-amine], the IC50 is under 50 nM.

Turning to `Nc1nonc1-c1nc2cc(F)ccc2n1Cc1cccnc1` (single isomer, unassigned) [Example 119, 4-[5-fluoro-1-(pyridin-3-ylmethyl)benzimidazol-2-yl]-1,2,5-oxadiazol-3-amine], the IC50 is under 50 nM.

Consider `Nc1nonc1-c1nc2c(F)cccc2n1Cc1ccncc1` (single isomer, unassigned) [Example 121, 4-[4-fluoro-1-(pyridin-4-ylmethyl)benzimidazol-2-yl]-1,2,5-oxadiazol-3-amine], for which the IC50 was under 100 nM.

`Cc1nonc1-c1nc2cccc(F)c2n1Cc1cccnc1` (single isomer, unassigned) [Example 122, 3-[7-fluoro-1-(pyridin-3-ylmethyl)benzimidazol-2-yl]-4-methyl-1,2,5-oxadiazole]: the IC50 was under 50 nM.

For the compound `Cc1nonc1-c1nc2c(F)cccc2n1Cc1cccnc1` (single isomer, unassigned) [Example 123, 3-[4-fluoro-1-(pyridin-3-ylmethyl)benzimidazol-2-yl]-4-methyl-1,2,5-oxadiazole], the IC50 was under 50 nM.

Consider `Cc1nsnc1-c1nc2c(F)cccc2n1Cc1cccnc1` (single isomer, unassigned) [Example 124, 3-[4-fluoro-1-(pyridin-3-ylmethyl)benzimidazol-2-yl]-4-methyl-1,2,5-thiadiazole], for which the IC50 was under 50 nM.

`Cc1nsnc1-c1nc2cccc(F)c2n1Cc1cccnc1` (single isomer, unassigned) [Example 125, 3-[7-fluoro-1-(pyridin-3-ylmethyl)benzimidazol-2-yl]-4-methyl-1,2,5-thiadiazole]: the IC50 was under 50 nM.

As to `Cc1snnc1-c1nc2cccc(F)c2n1Cc1cccnc1` (single isomer, unassigned) [Example 128, 4-[7-fluoro-1-(pyridin-3-ylmethyl)benzimidazol-2-yl]-5-methyl-1,2,3-thiadiazole], the IC50 is under 100 nM.

Take `Cc1snnc1-c1nc2c(F)cccc2n1Cc1cccnc1` (single isomer, unassigned) [Example 129, 4-[4-fluoro-1-(pyridin-3-ylmethyl)benzimidazol-2-yl]-5-methyl-1,2,3-thiadiazole]: the IC50 is under 100 nM.

As for `Nc1nonc1-c1nc2cccc(F)c2n1Cc1ccnnc1` (single isomer, unassigned) [Example 132, 4-(7-fluoro-1-(pyridazin-4-ylmethyl)-benzimidazol-2-yl)-1,2,5-oxadiazol-3-amine], the IC50 was under 50 nM.

Regarding `Nc1nonc1-c1nc2c(F)cccc2n1Cc1ccnnc1` (single isomer, unassigned) [Example 133, 4-(4-fluoro-1-(pyridazin-4-ylmethyl)-benzimidazol-2-yl)-1,2,5-oxadiazol-3-amine], the 50% inhibitory concentration (IC50) is under 100 nM.

As to `Nc1nonc1-c1nc2cccc(F)c2n1Cc1ccncn1` (single isomer, unassigned) [Example 134, 4-(7-fluoro-1-(pyrimidin-4-ylmethyl)-benzimidazol-2-yl)-1,2,5-oxadiazol-3-amine], the IC50 was under 50 nM.

In the case of `Nc1nonc1-c1nc2c(F)cccc2n1Cc1ccncn1` (single isomer, unassigned) [Example 135, 4-(4-fluoro-1-(pyrimidin-4-ylmethyl)-benzimidazol-2-yl)-1,2,5-oxadiazol-3-amine], the IC50 is under 200 nM.

For the compound `Cc1nonc1-c1nc2cccc(F)c2n1Cc1ccc(S(C)(=O)=O)nc1` (single isomer, unassigned) [Example 137, 3-(7-fluoro-1-((6-(methylsulfonyl)pyridin-3-yl)methyl)-benzimidazol-2-yl)-4-methyl-1,2,5-oxadiazole], the IC50 was under 500 nM.

With `Cc1nonc1-c1nc2c(F)cccc2n1Cc1ccc(S(C)(=O)=O)nc1` (single isomer, unassigned) [Example 138, 3-(4-fluoro-1-((6-(methylsulfonyl)pyridin-3-yl)methyl)-benzimidazol-2-yl)-4-methyl-1,2,5-oxadiazole], the IC50 is under 1000 nM.

With `Cc1nonc1-c1nc2cc(F)cc(F)c2n1Cc1cccnn1` (single isomer, unassigned) [Example 146, 3-(5,7-difluoro-1-(pyridazin-3-ylmethyl)-benzimidazol-2-yl)-4-methyl-1,2,5-oxadiazole], the IC50 is under 50 nM.

Turning to `Cc1nonc1-c1nc2c(F)cc(F)cc2n1Cc1cccnn1` (single isomer, unassigned) [Example 147, 3-(4,6-difluoro-1-(pyridazin-3-ylmethyl)-benzimidazol-2-yl)-4-methyl-1,2,5-oxadiazole], the IC50 was under 200 nM.

`Nc1nonc1-c1nc2cccc(F)c2n1Cc1ccc(Cl)nn1` (single isomer, unassigned) [Example 148, 4-(1-((6-chloropyridazin-3-yl)methyl)-7-fluoro-benzimidazol-2-yl)-1,2,5-oxadiazol-3-amine]: the IC50 was under 50 nM.

With `Nc1nonc1-c1nc2c(F)cccc2n1Cc1ccc(Cl)nn1` (single isomer, unassigned) [Example 149, 4-(1-((6-chloropyridazin-3-yl)methyl)-4-fluoro-benzimidazol-2-yl)-1,2,5-oxadiazol-3-amine], the IC50 is under 100 nM.

Take `COc1ccc(Cn2c(-c3nonc3N)nc3cccc(F)c32)nn1` (single isomer, unassigned) [Example 152, 4-(7-fluoro-1-((6-methoxypyridazin-3-yl)methyl)-benzimidazol-2-yl)-1,2,5-oxadiazol-3-amine]: the IC50 was under 50 nM.
